The subject of assay [1] is GBM cell lines U251, LN229, and U87. As to the kind of experiment: Live cell count of GBM cell lines treated with MGO and TTFields (Inovitro system). Format: cell-based. The text has this:
At the experimental endpoint cells were visualized by microscopy, counted, and taken for protein or RNA extraction for further analysis.
GBM cell lines U251, LN229, and U87 were used in this Example. […] The Inovitro™ system was operated with low intensity (1-3 V/cm) and medium frequency (200 kHz) alternating electric fields, which have a selective antimitotic effect on cancer cells. […] In addition, the arrangement of alpha and gamma tubulin was visualised by immunofluorescence.
The results of each experiment are indicated as cell count (live cells).

Assay [2] concerns GBM cells. Kind of assay: Preliminary work: MGO-induced glycation and invasion of GBM cells. It counts as cell-based. The text has this: Glioblastoma (GBM) is a highly aggressive and invasive brain tumor.

Consider one molecule from US20250367138A1 (Novocure GmbH, priority 2024, published 2025).

On to `CC(=O)C=O` [MGO, methylglyoxal], for which, in assay [1] (0.1 mM MGO alone, FIG. 2), the “proliferation of cells (cell count)” value is reported as “increased proliferation”. For the same molecule, the “effect of TTFields on proliferation of cells under MGO” value in assay [1] (0.1 mM MGO plus TTFields (200 kHz, 1-3 V/cm), FIG. 2) is “reduce the increased proliferation”. Besides, the “rate of apoptosis with additional TTFields” value in assay [1] (0.3 mM MGO over the entire period plus TTFields (200 kHz, 1-3 V/cm)) is recorded as “enhanced”. The rate of apoptosis entry in assay [1] (0.3 mM MGO over the entire period, alone, FIGS. 3-4) was “increased rate of apoptosis”. The “combination effect of concomitant TTFields and MGO (live cell count)” value in assay [1] (Example 2, experiments A-H: 0.1 or 0.3 mmol/L MGO, TTFields 24-72 h, U251, LN229, U87, FIGS. 5-12) is reported as “synergistic effect”. The “glycation of cell surface proteins” value in assay [2] is reported as “induces glycation of cell surface proteins”. The invasion / phenotype result in assay [2] (associated with MGO-induced glycation) is “increased invasion”.
